Results on 99 compounds are retold here after ChEMBL document CHEMBL3507680, “University of Dundee, Gates Library screen for HepG2 cell viability”.

A short description of the data set: Human HepG2 cell viability assay in 384 well format. The format is toxicity, cell-based. On the set-up: dose 125 nL, time 70.5 hour; cytotoxicity at 70.5 h: concentration not given beside the values. The following applies: HepG2 cells, read-out: Inhibition.
With `O=C(CCOc1cccc(F)c1)N1CCCC(n2cncn2)C1` (centres undefined), the cytotoxicity at 70.5 h was -6.87%.
The figure for `CCN1CC2(CC1=O)CN(C(=O)C(C)C)CCN(S(=O)(=O)CC)C2` (centres undefined) is -4.9%.
The result for `Cc1noc(C)c1CSCc1nc(N)c2ccccc2n1` reads 0.626%; that for `COCCCN(C)S(=O)(=O)c1ccc(C(F)(F)F)cc1C#N`, -10.6%.
The figure for `Cc1nc([C@H]2C[C@H]3CN(C(=O)c4cc(C)c(C)s4)CC[C@@H]3O2)no1` is -12.1%; for `CC(C)NC(=O)C1CCN(c2snc3ccccc23)CC1` it is -9.65%; for `Cc1cc(NC(=O)CN2CCN(C3CCCC3)C(=O)C2)nn1C` it is -4.01%.
For `O=C(CCNS(=O)(=O)c1ccccc1F)NCc1ccoc1`, the cytotoxicity at 70.5 h is 4.05%.
The figure for `O=C(NCC1CC1)Nc1ccc(OCC(F)(F)F)nc1` is -9.95%.
With `O=C1CC(Nc2ccc3nccnc3n2)CN1c1ccccc1` (centres undefined), the cytotoxicity at 70.5 h was -2.9%.
The figure for `O=C1NCC2(CCCN(Cc3cccnc3)C2)Oc2ccccc21` (centres undefined) is -7.07%.
The figure for `CC(CNC(=O)N1CCN(c2ncccn2)CC1)Cc1cccs1` (centres undefined) is 17.5%; for `Cc1csc(C(=O)NCCN2CCC(c3cccs3)CC2)c1` it is 35.6%; for `CN(Cc1ccnc2ccccc12)C1CCS(=O)(=O)C1` (centres undefined) it is -6.17%.
The result for `Cc1ccc([C@@H]2CN(C(=O)CCc3ccco3)C[C@H]2N(C)C)cc1` reads 0.00383%; that for `CNC(=O)[C@H]1C[C@@H]2CN(C(=O)c3cccnc3)C[C@@H]2N1S(C)(=O)=O`, -11.1%.
`Cc1ccccc1N1CC2(CCN(c3nncs3)C2)CC1=O` (centres undefined): the cytotoxicity at 70.5 h was -1.13%.
The figure for `Cc1cnn(C2CCCN(C(=O)c3ccccc3-n3cnnn3)C2)c1` (centres undefined) is -3.2%; for `CCN1CCN(C(=O)C(C)SC)CC1` (centres undefined) it is -6.96%; for `O=C1CC2(CCCCN2C(=O)c2ccccc2)CN1CC1CC1` (centres undefined) it is 4.75%.
Consider `CC(C)c1noc(C(C)N2CCN(Cc3cccs3)CC2)n1` (centres undefined), for which the cytotoxicity at 70.5 h is 12.6%.
The result for `C[C@@H]1CN(C(=O)Nc2cccc(OC(F)F)c2)CC(C(N)=O)O1` (some centres undefined) reads -1.07%; that for `Cc1nc(C2CCCN2CCCn2c(=O)oc3ccccc32)no1` (centres undefined), 19.1%.
For `CN(Cc1cccnc1)[C@@H]1CN(Cc2cnn(C)c2)[C@@H]2CCCO[C@H]12`, the cytotoxicity at 70.5 h was -6.78%.
Take `COCCS(=O)(=O)Nc1ccc(-n2cncn2)c(F)c1`: the cytotoxicity at 70.5 h was -8.99%.
The result for `CC(C)CCN(C)C(=O)c1nc(S(C)(=O)=O)n2ccccc12` reads 4.51%; that for `Cc1ccc(NC2CCN(C(=O)CCc3cscn3)CC2)nn1`, 11.4%; that for `Cc1nnc(N2CCC(CCn3ccnc3C)CC2)o1`, -5.62%.
In the case of `Cc1nn(C)c(C)c1CN(C)CC1(O)CCCN(C)C1` (centres undefined), the cytotoxicity at 70.5 h was -19.1%.
The result for `O=C1[C@H]2CN(Cc3ccoc3)C[C@H]2CN1CCN1CCCC1` reads -12.5%; that for `Cn1nccc1C(=O)N1CCCN(CCCc2ccccc2)CC1`, -0.514%.
The figure for `CN1Cc2ccccc2NC(=O)C12CCNC2` (centres undefined) is -2.63%; for `COCCN1CC[C@H]2OCC[C@@H](C(=O)N3CCCO3)[C@H]2C1` it is 47%; for `CNS(=O)(=O)c1ccc(C)c(C(=O)NCCNc2ncccn2)c1` it is -14.9%.
The figure for `Cc1noc(C)c1CN1CC2(CCN(C(=O)c3cc[nH]n3)C2)CC1=O` (centres undefined) is -6.88%; for `CC(=O)Nc1nc(C(=O)N2CCCC2Cn2cc(C)cn2)cs1` (centres undefined) it is -10.5%.
On to `COc1cc(CNC(=O)COC2CCCCC2)ccc1O`, for which the cytotoxicity at 70.5 h is -4.46%.
The result for `CCOCc1nc(CSc2ccncc2)n(C2CCN(C)CC2)n1` reads 13%.
The figure for `CN(C)c1cc(CNC(=O)c2n[nH]c(=O)c3ccccc23)ccn1` is 12.8%; for `CCC(CC)NC(=O)c1ccc2c(c1)C(c1nc[nH]n1)CN2S(C)(=O)=O` (centres undefined) it is -7.51%.
The figure for `c1cncc(CN2Cc3nccn3CC(Cn3cncn3)C2)c1` (centres undefined) is 0.12%; for `CN(Cc1ccc(-n2ccnc2)cc1)Cc1ncc[nH]1` it is -6.87%; for `CCc1cnc(CNc2ccc(C(=O)NCc3ccco3)cc2C)o1` it is -8.92%.
In the case of `Cc1cnc(C(=O)N2CCN(c3ncc4c(n3)CCOC4)CC2)cn1`, the cytotoxicity at 70.5 h was -1.26%.
Take `CCSCCC(C)NC(=O)Nc1cccn(C)c1=O` (centres undefined): the cytotoxicity at 70.5 h is -10%.
Consider `Cc1ccc(OCC(=O)Nc2ncccc2OC(F)F)cc1`, for which the cytotoxicity at 70.5 h was -1.62%.
The result for `O=S(=O)(NCC1COc2ccccc2C1)N1CCOCC1` (centres undefined) reads -3.96%.
The figure for `CCC(C)N(Cc1sccc1C)C(=O)c1cnc[nH]1` (centres undefined) is -6.28%; for `Cc1ccc(NC(=O)CC2Cn3ncnc3NC2=O)cc1C` (centres undefined) it is -8.36%.
The result for `Cc1ccc(C)c(CSc2nnc(C(N)C(C)C)o2)c1` (centres undefined) reads -9.25%; that for `Cc1ccc2[nH]c(-c3cn(C4CCNCC4)nn3)nc2c1C`, -3.44%.
As for `Cc1ccc(S(=O)(=O)N2CCCC(c3n[nH]cc3C(=O)N(C)C)C2)cc1` (centres undefined), the cytotoxicity at 70.5 h was determined as 9.91%.
The result for `CN1CC(=O)N(C2CCNC2)Cc2c(NC3CCCC3)ncnc21` (centres undefined) reads -5.19%.
The result for `NC(=O)C1CCCN(Cc2c(-c3ccco3)[nH]c3ncccc23)C1` (centres undefined) reads -10.6%.
The figure for `Cn1cc(CCNC(=O)c2cc3ccccc3nc2N2CCCC2)cn1` is 3.18%.
`O=C(Nc1cccnc1)[C@H]1CN(C2CCCC2)C[C@H]2OCC[C@@H]12`: the cytotoxicity at 70.5 h is -2.64%.
The result for `CN(c1ncnc2c1CCC2)C1CCCN(c2cccnn2)C1` (centres undefined) reads 1.68%; that for `Cc1cc(C)c2c(NCCC34CCCN3CCC4)ncnc2n1`, -3.78%; that for `CNc1nc2c(c(C(=O)N3CCCC3)n1)CN(Cc1nccn1C)CC2`, -10.9%.
The result for `O=C(N1CCOCC1)N1CCc2ncnc(Oc3cccnc3)c2CC1` reads -2.03%.
The figure for `c1cnc2c(c1)cc([C@H]1CCCO1)n2CCN1CCCC1` is -1.04%; for `Fc1ccccc1CN1CCCN(c2ncnc3[nH]ccc23)CC1` it is -24%.
As to `c1ccc(-c2noc(CN3CCC(c4ccn[nH]4)CC3)n2)cc1`, the cytotoxicity at 70.5 h is -14.9%.
Turning to `O=C(CCC1CCN(C(=O)c2cnco2)CC1)NCc1cccc(Cl)c1`, the cytotoxicity at 70.5 h is -5.59%.
The figure for `O=C(CC1CN(Cc2ccccc2)CCO1)NC1CCSCC1` (centres undefined) is 3.03%.
The result for `O=C(NCc1ccco1)c1nn(C2CCS(=O)(=O)C2)c2c1CCCC2` (centres undefined) reads -10.4%.
For `CCCn1nc2c(cc1=O)CN(CC(=O)Nc1cc(C)no1)CC2`, the cytotoxicity at 70.5 h is -7.27%.
The figure for `CCc1cc(=O)[nH]c2nnc(SCC(=O)N3CCC(C)CC3)n12` is 19.7%.
The result for `CC(CCn1cccn1)N1CCC(n2cc(C(C)(C)N)nn2)CC1` (centres undefined) reads 1.2%; that for `Cc1noc(C)c1CN1CCN(C(C)c2nc(C3CC3)no2)CC1` (centres undefined), -3.54%; that for `Cn1cc(CCCN2CCN(C(=O)c3cccc(O)c3)CC2)cn1`, -3.56%.
The result for `CCc1noc(C(C)N2CCC(N3CCCCC3)CC2)n1` (centres undefined) reads -6.88%.
As for `CC(C)(C)c1cc(NC(=O)CN2CCC(N3CCNC3=O)CC2)on1`, the cytotoxicity at 70.5 h was 17%.
The figure for `Cc1sc(CS(C)(=O)=O)nc1-c1ccc(Cl)cc1` is 14.3%.
The result for `CC(C)c1nc(CN(C)C(=O)[C@H](N)Cc2ccc(Cl)cc2)cs1` reads 2.45%; that for `CCN(Cc1cccc(F)c1)Cc1nc2c(cnn2C)c(=O)[nH]1`, 14.7%.
In the case of `N#Cc1ccc(NCCC(=O)N2CCCc3ccccc32)nc1`, the cytotoxicity at 70.5 h was -6.4%.
On to `COc1nccnc1N1CCN(Cc2ccc3c(c2)OCO3)C(=O)C1`, for which the cytotoxicity at 70.5 h turned out to be 20.7%.
The result for `Cc1nc(CCN2CCC(Oc3ccccc3F)CC2)cs1` reads 9.73%; that for `O=C1CCN(C(=O)CCc2cc(Br)cs2)CCN1`, -10.5%.
The figure for `Cc1noc(C)c1-c1ccc(C2CCCN2C(=O)c2cccnn2)nc1` (centres undefined) is 19.1%; for `CCNC(=O)CNS(=O)(=O)Cc1cc(-c2ccccc2)no1` it is 2.55%; for `CC(C)[C@H]1CN(Cc2ccccc2C#N)C[C@@H]1NC(=O)C1CCOCC1` it is -13.1%.
The result for `CN(C)CCNC(=O)CNC(=O)N1CCc2c([nH]c3ccc(Cl)cc23)C1` reads 45.2%.
Consider `CN(Cc1ccco1)Cc1ccccc1CNC(=O)c1cnccn1`, for which the cytotoxicity at 70.5 h was -6.66%.
The figure for `O=C(Nc1nc2c(s1)CN(S(=O)(=O)C1CC1)CC2)c1c(F)cccc1F` is 3.16%; for `COc1ccc(-n2cnnc2CC2CCNCC2)cc1` it is 1.1%.
The figure for `CN(C)CC(=O)N1CCC2(CC1)CN(c1ncccn1)CCO2` is 5.39%; for `Cc1cccc(CN2CCCC3(CCC(=O)N3CCN(C)C)CC2)n1` (centres undefined) it is -3.65%.
The result for `CCc1nnc(CN(CC)C(=O)C2CC(=O)N(C3CC3)C2)o1` (centres undefined) reads -3.34%; that for `CCN(CC)C(=O)[C@@H]1C[C@H](n2cc(-c3ccccn3)nn2)CN1`, 12%.
With `N#Cc1cccnc1Nc1ccc(N2CCC(C(N)=O)CC2)cc1`, the cytotoxicity at 70.5 h worked out at 4.18%.
In the case of `CN(C)c1cc(C2CCCN(C(=O)c3ccc(=O)[nH]n3)C2)ccn1` (centres undefined), the cytotoxicity at 70.5 h was -1.67%.
The result for `CCCn1cc(-c2cc(-c3cnc(OC)nc3)c(C#N)c(N)n2)c(C)n1` reads -7.45%; that for `O=C(CN1CCC(Nc2ncccn2)CC1)Nc1ccccc1`, -5.9%; that for `CC(C)c1ncncc1C(=O)N1CCCN(Cc2cccs2)CC1`, -18.9%.
The figure for `Cc1n[nH]cc1CNC1CCN(c2ccccc2)CC1` is 24.8%; for `CCC(=O)Nc1nnc(CCOc2ccc(OC)cc2)s1` it is 3.07%; for `N#CCCCS(=O)(=O)NC(=O)c1ccccc1F` it is -0.732%.
